Biological target: Glycogen synthase kinase-3 beta (Homo sapiens, UniProt P49841)
Test: Biochemical hGSK-3Beta Assay: Compounds were tested for their ability to inhibit human Glycogen Synthase Kinase-3 beta (hGSK-3β) to phosphorylate biotin-[…](pS)EDEEE. Compounds were incubated with 0.5 μCi 33P-ATP, 10 μM ATP, 0.0125 U hGSK-3β (Upstate cell signaling solutions) and 1 μM substrate (biotin-[…](pS)EDEEE) in 50 mM HEPES, 10 mM MgCl2, 100 mM Na3VO4, 1 mM DTT, 0.0075% Triton, 2% DMSO (total volume 50 μL) for 30 minutes at room temperature. The incubation was stopped by addition of an equal volume of 100 mM EDTA, 4M NaCl. 80 μL of this mixture was added to streptavidin-coated Flash-plates (PerkinElmer). Following a wash step, 33P incorporation was quantified on a MicroBeta microplate liquid scintillation counter (Perkin Elmer). IC50s were determined by fitting a sigmoidal dose-response curve to the counts obtained at the different concentrations in GraphPad Prism.

Sequence of Glycogen synthase kinase-3 beta (P49841 whole entry): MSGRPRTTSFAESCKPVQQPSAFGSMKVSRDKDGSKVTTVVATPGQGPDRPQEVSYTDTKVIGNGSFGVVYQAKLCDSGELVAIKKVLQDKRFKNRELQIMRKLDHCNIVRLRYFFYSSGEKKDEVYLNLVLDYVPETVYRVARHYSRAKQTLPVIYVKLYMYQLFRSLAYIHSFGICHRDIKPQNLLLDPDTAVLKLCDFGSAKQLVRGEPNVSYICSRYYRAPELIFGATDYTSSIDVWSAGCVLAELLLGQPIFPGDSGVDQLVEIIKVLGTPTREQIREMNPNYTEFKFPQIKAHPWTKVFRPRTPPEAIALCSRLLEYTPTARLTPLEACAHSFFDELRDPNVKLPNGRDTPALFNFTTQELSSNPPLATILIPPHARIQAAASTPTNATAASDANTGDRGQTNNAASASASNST

| Compound | IC50 [nM] |
| --- | --- |
| N#Cc1ccc2c(c1)C(c1ccc3c(n1)CCCC3=O)C(=O)N2 (configuration not stated) | < 100 |
| N#Cc1ccc2c(c1)C(c1ccc3c(n1)C(O)CCC3)C(=O)N2 (configuration not stated) | < 100 |
